BigSolDB 2.1

NC(=O)CS(=O)C(c1ccccc1)c1ccccc1 (stereo not given)
Conditions | solubility (mole fraction)
in 2-butanone, 281 K | 0.00114
in 2-butanone, 304.7 K | 0.00253
in 2-butanone, 307.3 K | 0.00278
in 2-butanone, 314.1 K | 0.00354
in 2-butanone, 317.8 K | 0.00401
in 2-butanone, 319.6 K | 0.00429
in 2-butanone, 329.4 K | 0.0059
in 2-butanone, 332.8 K | 0.00661
in DMF, 280.7 K | 0.0552
in DMF, 283.3 K | 0.0579
in DMF, 290.8 K | 0.0656
in DMF, 293.6 K | 0.0702
in DMF, 300.1 K | 0.0784
in DMF, 311.5 K | 0.0926
in DMF, 318 K | 0.103
in DMF, 320.4 K | 0.108
in acetone, 278.2 K | 0.00141
in acetone, 284 K | 0.00175
in acetone, 290.4 K | 0.0021
in acetone, 294.1 K | 0.00239
in acetone, 303.2 K | 0.00321
in acetone, 307.5 K | 0.00371
in acetone, 311.8 K | 0.00426
in acetone, 320.2 K | 0.0057
in acetonitrile, 286.3 K | 0.000684
in acetonitrile, 293.1 K | 0.000981
in acetonitrile, 297.9 K | 0.00132
in acetonitrile, 301.4 K | 0.00163
in acetonitrile, 304.4 K | 0.00195
in acetonitrile, 311.1 K | 0.00292
in acetonitrile, 322 K | 0.00578
in acetonitrile, 326.4 K | 0.00729
in ethanol, 280.6 K | 0.000668
in ethanol, 285.2 K | 0.000755
in ethanol, 288.4 K | 0.000917
in ethanol, 294.2 K | 0.00111
in ethanol, 304.2 K | 0.00167
in ethanol, 313.7 K | 0.00253
in ethanol, 322.8 K | 0.00377
in ethanol, 330 K | 0.00527
in ethyl acetate, 273.2 K | 0.00046
in ethyl acetate, 288 K | 0.000602
in ethyl acetate, 291.9 K | 0.000709
in ethyl acetate, 298 K | 0.000844
in ethyl acetate, 303.5 K | 0.001
in ethyl acetate, 312.3 K | 0.00141
in ethyl acetate, 322.2 K | 0.002
in ethyl acetate, 328.3 K | 0.00255
in isopropanol, 283.2 K | 0.000603
in isopropanol, 287.9 K | 0.00086
in isopropanol, 295.8 K | 0.00106
in isopropanol, 299.8 K | 0.00129
in isopropanol, 308.5 K | 0.00193
in isopropanol, 317.6 K | 0.00291
in isopropanol, 323.5 K | 0.00388
in isopropanol, 331.5 K | 0.00607
in methanol, 277.9 K | 0.00189
in methanol, 289 K | 0.0028
in methanol, 297.5 K | 0.00394
in methanol, 301.8 K | 0.00459
in methanol, 308.4 K | 0.0059
in methanol, 314 K | 0.00744
in methanol, 318.2 K | 0.00891
in methanol, 319.7 K | 0.00945
in n-propanol, 284.5 K | 0.001
in n-propanol, 291.9 K | 0.00131
in n-propanol, 299 K | 0.00184
in n-propanol, 300.4 K | 0.00195
in n-propanol, 314.3 K | 0.00362
in n-propanol, 316.9 K | 0.00411
in n-propanol, 319.9 K | 0.00475
in n-propanol, 324.8 K | 0.00585
in water, 290.7 K | 5.4e-05
in water, 297.5 K | 8.1e-05
in water, 300.5 K | 8.8e-05
in water, 301.7 K | 0.000103
in water, 309.5 K | 0.00013
in water, 312.9 K | 0.000177
in water, 320.8 K | 0.000242
in water, 323.4 K | 0.000281
